According to patent US9862754B2, “Peptide analogs for treating diseases and disorders” (KeyBioscience AG, priority 2011, dated 2018):
Numbered stars: 1 amine (or outer) side, 2 acyl side, 3 side chain; on linkers, the order of the positions; unused ones are H or OH. * marks the point of attachment. Suc = O=C(CCC(=O)[*:2])[*:1]; Propionyl = CCC(=O)*

Assays:
Format in all cases: in vivo, rat
[1] = Example 7: insulin tolerance test in Zucker Diabetic Fatty rats; conditions: ZDF rats; metformin 400 mg/kg/day oral, UGP302 5 μg/kg/day s.c.
Description: (§1) To assess the potential of UGP302 (SEQ ID NO: 15) in combination with metformin, Zucker Diabetic Fatty rats were used. At the age of 6 weeks 40 rats were randomized into four groups according to HbA1c, FPG and BW. The groups were: Control (Vehicle), Metformin 400 mg/kg/day, UGP302 5 μg/kg/day and the combination of the two molecules in the stated respective amounts. The treatments were given once daily, and metformin was dosed orally, while UGP302 was given subcutaneously, and the animals were treated for 8 weeks. Fasting blood glucose (FPG) and non-fasted blood glucose (PPG) were monitored biweekly, while HbA1c was measured at termination.
(§2) To further assess the effect of both single doses of each molecule and the combination of these at those same doses, the rats underwent an oral glucose tolerance test (OGTT, FIGS. 23A-23B) and an insulin tolerance test (ITT, FIGS. 24A-24B).

[2] = Example 7: combination with metformin in Zucker Diabetic Fatty rats, FPG, PPG, HbA1c; conditions: ZDF rats; 8 weeks once daily; metformin 400 mg/kg/day oral, UGP302 5 μg/kg/day s.c.
Description: as §1

[3] = Example 7: oral glucose tolerance test in Zucker Diabetic Fatty rats; conditions: ZDF rats; metformin 400 mg/kg/day oral, UGP302 5 μg/kg/day s.c.
Description: as §1, §2

[4] = Example 3: OGTT after 3 days of oral treatment in DIO rats; conditions: doses of 0.5, 1 and 2 mg/kg p.o.
Description: (§3) Drug administration were given by per oral (p.o.) gavage b.i.d. during the study period and as single dose in the morning prior to start of OGTT.
Animals were given 2 g/kg single dose dissolved in milliQ H20.
(§4) Following the initial (1st) OGTT, animals were randomized into treatment groups based on FBG and BW. Animals were pre-treated 3 days (b.i.d.) prior to 2nd OGTT. The study was performed in an x-over design with each animal being its own control.
OGTT Following Overnight Fasting (16 h):
Blood sampling and glycemia were measured by heated tail venous puncture. Whole blood glucose levels were determined with an ACCU-CHEK® Avia blood glucose meter (Roche Diagnostics, Rotkreuz, Switzerland). Blood (approx 300 μl) is collected in 1 ml MiniCollect K3EDTA plasma-tube (Greiner-Bio-One GmbH, Frickenhausen, Germany), inverted, and stored on ice. Tubes are centrifuged 3000×g (5000 rpm in table centrifuge) for 10 min at 4° C. and plasma obtained. Plasma samples are stored at −20° C. until analysis. A total of ˜2.5 ml blood is obtained during OGTT (˜0.3% of body weight).
(§5) Statistical analysis was performed by one-way ANOVA followed by the Dunnett's post hoc test for multiple comparison. Student's t-test was performed to compare two paired group. All analysis was performed using GRAPHPAD PRISM software (GraphPad Prism, San Diego, Calif. U.S.A). Incremental area under curve (iAUC) during OGTT was calculated by the trapezoidal method. A value of P<0.05 was considered to be significant. All data are presented as mean±standard error of the mean (SEM).
FIG. 10A, FIG. 10B, FIG. 10C, FIG. 10D, FIG. 10E, and FIG. 10F show the effect of oral sCT versus oral UGPs on glucose tolerance during OGTT in DIO rats. Three different doses of oral sCT/UGP284/UGP298/UGP302 containing 0.5, 1 and 2 mg/kg compound were applied by gavage twice daily to 4 groups of rats for 3 days prior to OGTT. The experimental set-up was a cross-over design. * P<0.05, ** P<0.01, *** P<0.001 vs oral vehicle. Results are presented as means±SEM.

[5] = Example 3: short-term oral treatment, body weight and food intake in DIO rats; conditions: for reduction in body weight vs oral sCT at same dose: DIO rats; for energy balance vs equivalent doses of oral sCT: 0.5, 1 and 2 mg/kg doses p.o., male DIO rats
Description: The study was performed in male Levin-DIO rats (diet-sensitive) and Levin-DR (diet-resistant) (TacLevin: CD (SD) DIO) (Taconic, Hudson, N.Y., U.S.A.) obtained at age 6-7 weeks. On arrival, DIO rats were given high fat diet (60 kcal %) (#D12495, Research Diets Inc., New Brunswick, N.J., USA) and kept on the same diet for 12 weeks prior to and during the experiment. DR rats were given low-fat diet and served as control group. Animals were pair-wise housed throughout the study. Rats were handled and pre-dosed once daily with MilliQ H2O for 2-3 weeks prior to experimental start to reduce stress-induced hyperglycemia. On the day prior to study start animals were given a single dose of vehicle. Baseline parameters were recorded in an overnight fasting (16 h) condition. Rats were randomized into treatment groups based on fasting body weight (BW) and fasting plasma glucose (FPG). Body weight, food and water intake were recorded prior to and at study end.
Animals treated with oral sCT or oral UGP284/UGP298/UGP302 received doses of 0.5 mg/kg, 1.0 mg/kg or 2.0 mg/kg combined with 150 mg/kg 5-CNAC—all dissolved in milliQ H2O.
as §3, §4, §5
FIG. 9A, FIG. 9B, FIG. 9C, FIG. 9D, FIG. 9E, and FIG. 9F show the effect of three different doses of oral sCT/UGP284/UGP298/UGP302 containing 0.5, 1 and 2 mg/kg compound were applied by gavage twice daily to 4 groups of rats for 3 days. * P<0.05, ** P<0.01 vs oral sCT. Results are presented as means±SEM.

| Molecule | insulin tolerance (ITT) [1] | fasting blood glucose (FPG) [2] | non-fasted blood glucose (PPG) [2] | glucose tolerance (OGTT) [3] | glucose tolerance during OGTT [4] | reduction in body weight vs oral sCT at same dose ([5]; 2 mg/kg p.o. b.i.d. for 3 days) | energy balance vs equivalent doses of oral sCT [5] | reduction in body weight vs oral sCT at same dose ([5]; 1 mg/kg p.o. b.i.d. for 3 days) |
| --- | --- | --- | --- | --- | --- | --- | --- | --- |
| CN(C)C(=N)N=C(N)N [metformin, reference compound] | individually improve | reduced | reduced | individually improve | – | – | – | – |
| PrCSNLSTCVLGKLSQELHKLQTYPRTNTGSGTP-NH2 (Propionyl-CSNLSTCVLGKLSQELHKLQTYPRTNTGSGTP-NH2; ends and bridges not checked) [UGP284, calcitonin mimetic] | – | – | – | – | improvement in glucose tolerance | significantly difference at 2 mg/kg dose | superiority to equivalent doses of oral sCT | – |
| SuccCSNLSTCVLGKLSQELHKLQTYPRTNTGSGTP-NH2 (Suc-CSNLSTCVLGKLSQELHKLQTYPRTNTGSGTP-NH2; ends and bridges not checked) [UGP298, calcitonin mimetic] | – | – | – | – | improvement in glucose tolerance | significantly different when compared with oral sCT | superiority to equivalent doses of oral sCT | significantly different when compared with oral sCT |
